The compounds below were run against Mcl-1 protein (UniProtKB Q07820) (Homo sapiens (Human), UniProt Q07820) (assay: Inhibition of Mcl-1 by the fluorescence polarisation assay (Example A, Method A)). Settings: fluorescence polarization assay.
Format: binding
Procedure, shortened: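 Protein (5 nM) and fluorescein-tagged peptide tracer (1 nM) incubated with 11-point compound series for 2 h at room temperature in HEPES/NaCl/Tween 20 buffer, pH 7.4, 5% DMSO. Displacement read as decrease in polarisation; IC50 fitted by 4-parameter logistic, converted to Ki (cKi or eKi).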

Mcl-1 protein, sequence (Q07820 whole entry): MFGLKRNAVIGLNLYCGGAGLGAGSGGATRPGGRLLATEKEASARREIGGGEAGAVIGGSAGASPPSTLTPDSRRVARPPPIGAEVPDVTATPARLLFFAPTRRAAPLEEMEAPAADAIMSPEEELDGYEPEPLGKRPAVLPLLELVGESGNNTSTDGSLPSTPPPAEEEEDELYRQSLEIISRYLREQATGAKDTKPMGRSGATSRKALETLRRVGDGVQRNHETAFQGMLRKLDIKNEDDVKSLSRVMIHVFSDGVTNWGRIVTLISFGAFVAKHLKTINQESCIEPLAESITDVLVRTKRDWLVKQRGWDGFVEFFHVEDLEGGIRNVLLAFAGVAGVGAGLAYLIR

Row | SMILES | Ki [nM]
1 | O=C(O)[C@]1(Nc2cccc(Cl)c2)CC[C@@]2(CC1)c1ccccc1CC2CCCc1ccc(Cl)cc1 (some centres unmarked) [Example 162, (1r,4r)-4-(3-chloroanilino)-2′-[3-(4-chlorophenyl)propyl]-2′,3′-dihydrospiro[cyclohexane-1,1′-indene]-4-carboxylic acid] | 558
2 | O=C(O)[C@]1(Nc2cccc(Cl)c2)CC[C@@]2(CC1)c1ccccc1CC2c1ccc(Oc2ccncc2)cc1 (single isomer, unassigned) [Example 365, (1r,4r)-4-(3-chloroanilino)-2′-{4-[(pyridin-4-yl)oxy]phenyl}-2′,3′-dihydrospiro[cyclohexane-1,1′-indene]-4-carboxylic acid] | 3090
3 | COc1ccc([C@@H]2Cc3ccccc3[C@]23CC[C@@](Nc2cccc(Br)c2)(C(=O)O)CC3)cc1 [Example 217, (1r,2′S,4S)-4-(3-bromoanilino)-2′-(4-methoxyphenyl)-2′,3′-dihydrospiro[cyclohexane-1,1′-indene]-4-carboxylic acid] | 484
4 | CCOC/C=C/C1=Cc2ccccc2[C@]12CC[C@@](Nc1cccc(Cl)c1)(C(=O)O)CC2 [Example 154, (1r,4r)-4-(3-chloroanilino)-2′-[(1E)-3-ethoxyprop-1-en-1-yl]spiro[cyclohexane-1,1′-indene]-4-carboxylic acid] | 162
5 | Cc1cnccc1OCCC1=Cc2ccccc2[C@]12CC[C@@](Nc1cccc(Cl)c1)(C(=O)O)CC2 [Example 189, (1r,4r)-4-(3-chloroanilino)-2′-{2-[(3-methylpyridin-4-yl)oxy]ethyl}spiro[cyclohexane-1,1′-indene]-4-carboxylic acid] | 121
6 | CC1CCc2nccc(OCCCC3Cc4ccccc4[C@]34CC[C@@](Nc3cccc(Cl)c3)(C(=O)O)CC4)c21 (some centres unmarked) [Example 478, (1r,4r)-4-(3-chloroanilino)-2′-{3-[(5-methyl-6,7-dihydro-5H-cyclopenta[b]pyridin-4-yl)oxy]propyl}-2′,3′-dihydrospiro[cyclohexane-1,1′-indene]-4-carboxylic acid] | 29.7
7 | O=C(O)[C@]1(Nc2cccc(Cl)c2)CC[C@]2(CC1)C(c1ccc(OCc3ccccc3)cc1)=Cc1ccccc12 [Example 309, (1s,4s)-2′-[4-(benzyloxy)phenyl]-4-(3-chloroanilino)spiro[cyclohexane-1,1′-indene]-4-carboxylic acid] | 732
8 | O=C(O)[C@]1(Nc2cccc(Cl)c2)CC[C@@]2(CC1)c1ccccc1CC2c1ccc(Oc2cccnc2)cc1 (some centres unmarked) [Example 367, (1r,4r)-4-(3-chloroanilino)-2′-{4-[(pyridin-3-yl)oxy]phenyl}-2′,3′-dihydrospiro[cyclohexane-1,1′-indene]-4-carboxylic acid] | 443
9 | COc1cccc(CCOCC2=Cc3ccccc3[C@]23CC[C@@](Nc2cccc(Cl)c2)(C(=O)O)CC3)c1 [Example 418, (1s,4s)-4-(3-chloroanilino)-2′-{[2-(3-methoxyphenyl)ethoxy]methyl}spiro[cyclohexane-1,1′-indene]-4-carboxylic acid] | 648
10 | O=C(O)[C@]1(Nc2cccnc2)CC[C@]2(CC1)C(Br)=Cc1ccccc12 [Example 87, (1s,4s)-2′-bromo-4-[(pyridin-3-yl)amino]spiro[cyclohexane-1,1′-indene]-4-carboxylic acid] | 4380
11 | COc1cccc(C2Cc3ccccc3[C@]23CC[C@@](Nc2cccc(Cl)c2)(C(=O)O)CC3)c1C (single isomer, unassigned) [Example 321, (1r,4r)-4-(3-chloroanilino)-2′-(3-methoxy-2-methylphenyl)-2′,3′-dihydrospiro[cyclohexane-1,1′-indene]-4-carboxylic acid] | 2940
12 | O=C(O)[C@]1(Nc2cccc(Cl)c2)CC[C@@]2(C=Cc3ccccc32)CC1 [Example 64, (1r,4r)-4-(3-chloroanilino)spiro[cyclohexane-1,1′-indene]-4-carboxylic acid] | 735
13 | CN1CCN(CCCC2Cc3ccccc3[C@]23CC[C@@](Nc2cccc(Cl)c2)(C(=O)O)CC3)CC1=O (some centres unmarked) [Example 198, (1r,4r)-4-(3-chloroanilino)-2′-[3-(4-methyl-3-oxopiperazin-1-yl)propyl]-2′,3′-dihydrospiro[cyclohexane-1,1′-indene]-4-carboxylic acid] | 7480

More lines, in order of falling Ki, values ahead:

Row | Ki [nM] | SMILES
14 | 19000 | Cc1cccc(C)c1C1=Cc2ccccc2[C@]12CC[C@@](Nc1cccc(Cl)c1)(C(=O)O)CC2 [Example 249, (1s,4s)-4-(3-chloroanilino)-2′-(2,6-dimethylphenyl)spiro[cyclohexane-1,1′-indene]-4-carboxylic acid]
15 | 13400 | COc1ccc([C@H]2Cc3ccccc3[C@]23CC[C@@](Nc2cccc(Br)c2)(C(=O)O)CC3)cc1 [Example 218, (1r,2′R,4R)-4-(3-bromoanilino)-2′-(4-methoxyphenyl)-2′,3′-dihydrospiro[cyclohexane-1,1′-indene]-4-carboxylic acid]
16 | 8450 | O=C(O)[C@]1(Nc2cccc(Cl)c2)CC[C@@]2(CC1)c1ccccc1C[C@@H]2c1cccc(Oc2ccccc2)c1 [Example 324, (1r,2′R,4R)-4-(3-chloroanilino)-2′-(3-phenoxyphenyl)-2′,3′-dihydrospiro[cyclohexane-1,1′-indene]-4-carboxylic acid]
17 | 2180 | COc1cc(Cl)cc(C2=Cc3ccccc3[C@]23CC[C@@](Nc2cccc(Cl)c2)(C(=O)O)CC3)c1 [Example 331, (1s,4s)-4-(3-chloroanilino)-2′-(3-chloro-5-methoxyphenyl)spiro[cyclohexane-1,1′-indene]-4-carboxylic acid]
18 | 710 | C[C@H](COc1ccnc2ccsc12)CC1Cc2ccccc2[C@]12CC[C@@](Nc1cccc(Cl)c1)(C(=O)O)CC2 (stereo partly drawn) [Example 592, (1r,4S)-4-(3-chloroanilino)-2′-{(2S)-2-methyl-3-[(thieno[3,2-b]pyridin-7-yl)oxy]propyl}-2′,3′-dihydrospiro[cyclohexane-1,1′-indene]-4-carboxylic acid]
19 | 447 | COc1ccc(CCCC2Cc3ccccc3[C@]23CC[C@@](Nc2cccc(Cl)c2)(C(=O)O)CC3)cc1 (some centres unmarked) [Example 161, (1r,4r)-4-(3-chloroanilino)-2′-[3-(4-methoxyphenyl)propyl]-2′,3′-dihydrospiro[cyclohexane-1,1′-indene]-4-carboxylic acid]
20 | 267 | O=C(O)[C@]1(Nc2cccc(Cl)c2)CC[C@@]2(CC1)c1ccccc1CC2c1cccc(Oc2ccncc2)c1 (single isomer, unassigned) [Example 376, (1r,4r)-4-(3-chloroanilino)-2′-{3-[(pyridin-4-yl)oxy]phenyl}-2′,3′-dihydrospiro[cyclohexane-1,1′-indene]-4-carboxylic acid]
21 | 217 | COc1ccc([C@@H]2Cc3ccccc3[C@]23CC[C@@](Nc2cccc(Cl)c2)(C(=O)O)CC3)cc1 [Example 240, (1r,2′S,4S)-4-(3-chloroanilino)-2′-(4-methoxyphenyl)-2′,3′-dihydrospiro[cyclohexane-1,1′-indene]-4-carboxylic acid]
22 | 200 | O=C(O)[C@]1(Nc2cccc(Cl)c2)CC[C@]2(CC1)C(Br)=Cc1cc(Cl)ccc12 [Example 135, (1s,4s)-2′-bromo-5′-chloro-4-(3-chloroanilino)spiro[cyclohexane-1,1′-indene]-4-carboxylic acid]
23 | 57.6 | CC(O)c1ccc2c(c1)[C@]1(CC[C@@](Nc3cccc(Cl)c3)(C(=O)O)CC1)C(Br)=C2 (some centres unmarked) [Example 133, (1s,4s)-2′-bromo-4-(3-chloroanilino)-6′-(1-hydroxyethyl)spiro[cyclohexane-1,1′-indene]-4-carboxylic acid]

Source: patent publication US20240150293A1, “SPIROCYCLOHEXANE DERIVATIVES, PHARMACEUTICAL COMPOSITIONS CONTAINING THEM AND THEIR USES AS ANTI-APOPTOTIC INHIBITORS” (LES LABORATOIRES SERVIER, priority 2021, published 2024)
